According to ChEMBL document CHEMBL5550129, “Optimization of benzenesulfonyl derivatives as anti-Trypanosomatidae agents: Structural design, synthesis, and pharmacological assessment against Trypanosoma cruzi and Leishmania infantum” (Bioorg Med Chem, 2024):

What was measured:
Leishmania braziliensis [1] = assay: Antileishmanial activity against Leishmania braziliensis MHOM/BR/75/M2904 expressing red fluorescence protein infected in THP-1 cells pre-infected for 4 hrs followed by compound addition and measured after 72 hrs by microplate reader assay; assay type: functional, organism-based; conditions: MHOM/BR/75/M2904, THP-1
[2] = Cytotoxicity against mouse L929 cells incubated for 96 hrs by Alamar blue assay; assay type: toxicity, cell-based
Trypanosoma cruzi [3] = assay: Antitrypanosomal activity against Trypanosoma cruzi Tulahuen expressing Escherichia coli beta-galactosidase infected in L929 cells pretreated with parasite for 50 hrs followed by compound addition and measured after 96 hrs; assay type: functional, organism-based
[4] = Selectivity index, ratio of CC50 for human THP-1 cells to IC50 for Leishmania infantum MHOM/BR/1974/PP75 expressing red fluorescence protein infected in THP-1 cells; assay type: toxicity, cell-based; conditions: read-out: Ratio CC50/IC50
[5] = Cytotoxicity against human THP-1 cells incubated for 72 hrs by Alamar blue assay; assay type: toxicity, cell-based
[6] = Selectivity index, ratio of CC50 for human THP-1 cells to IC50 for Leishmania braziliensis MHOM/BR/75/M2904 expressing red fluorescence protein infected in THP-1 cells; assay type: toxicity, cell-based; conditions: read-out: Ratio CC50/IC50
Leishmania infantum [7] = assay: Antileishmanial activity against Leishmania infantum MHOM/BR/1974/PP75 expressing red fluorescence protein infected in THP-1 cells pre-infected for 4 hrs followed by compound addition and measured after 72 hrs by microplate reader assay; assay type: functional, organism-based; conditions: MHOM/BR/1974/PP75, THP-1
[8] = Selectivity index, ratio of CC50 for mouse L929 cells to IC50 for Trypanosoma cruzi Tulahuen expressing Escherichia coli beta-galactosidase infected in L929 cells; assay type: toxicity; conditions: read-out: Ratio CC50/IC50
Trypanosoma cruzi [9] = assay: Antitrypanosomal activity against Trypanosoma cruzi; assay type: functional, organism-based
[10] = Selectivity index, ratio of CC50 for human THP-1 cells to IC50 for Leishmania braziliensis; assay type: toxicity; conditions: read-out: Ratio CC50/IC50
Leishmania infantum [11] = assay: Antileishmanial activity against Leishmania infantum; assay type: functional, organism-based
[12] = Selectivity index, ratio of CC50 for human THP-1 cells to IC50 for Leishmania infantum; assay type: toxicity; conditions: read-out: Ratio CC50/IC50
[13] = Cytotoxicity against mouse L929 cells; assay type: toxicity, cell-based
[14] = Cytotoxicity against human THP-1 cells; assay type: toxicity, cell-based
Leishmania braziliensis [15] = assay: Antileishmanial activity against Leishmania braziliensis; assay type: functional, organism-based
[16] = Selectivity index, ratio of CC50 for mouse L929 cells to IC50 for Trypanosoma cruzi; assay type: toxicity; conditions: read-out: Ratio CC50/IC50

SMILES | IC50 (Leishmania braziliensis [1]) [µM] | IC50 (Trypanosoma cruzi [3]) [µM] | IC50 (Leishmania infantum [7]) [µM] | CC50 at 96 h [2] [µM] | selectivity ratio [4] | CC50 at 72 h [5] [µM] | selectivity ratio [8] | further results
Nc1ccc(C(=O)N2CCN(S(=O)(=O)c3ccc(Cl)cc3)CC2)cc1 | – | > 200 | > 100 | – | – | > 1000 | – | –
O=C(c1ccc([N+](=O)[O-])cc1)N1CCN(S(=O)(=O)c2ccc(Cl)cc2)CC1 | – | > 200 | 48.8 | – | > 20 | > 1000 | – | –
O=S(=O)(c1ccc(Cl)cc1)N1CCNCC1 | – | – | – | – | – | – | – | IC50 (Trypanosoma cruzi [9]): 3.7 µM; selectivity ratio [10]: > 250; IC50 (Leishmania infantum [11]): 5 µM; selectivity ratio [12]: > 250; CC50 [13]: 227 µM; CC50 [14]: 1250 µM; IC50 (Leishmania braziliensis [15]): 4.5 µM; selectivity ratio [16]: 61
CN(C)CCOc1ccc(N2CCN(S(=O)(=O)c3ccc(N)cc3)CC2)cc1 | – | 168 | 55.2 | – | > 11 | > 1000 | – | –
O=C(c1ccc(-n2cnnn2)cc1)N1CCN(S(=O)(=O)c2ccc(Cl)cc2)CC1 | – | 145 | 35.9 | – | – | > 1000 | – | –
NCCOc1ccc(C(=O)N2CCN(S(=O)(=O)c3ccc(Cl)cc3)CC2)cc1 | – | > 200 | > 100 | – | – | 911 | – | –
O=S(=O)(c1ccc(F)cc1)N1CCN(c2ccccc2)CC1 | – | > 200 | > 100 | – | – | – | – | –
CN(C)CCOc1ccccc1C(=O)N1CCN(S(=O)(=O)c2ccc(Cl)cc2)CC1 | 7.2 | > 200 | 10.3 | – | > 49 | > 500 | – | selectivity ratio [6]: > 69.5
CN(C)CCOc1cccc(C(=O)N2CCN(S(=O)(=O)c3ccc(Cl)cc3)CC2)c1 | 4.4 | 137 | 0.6 | – | – | – | – | –
N#Cc1ccc(C(=O)N2CCN(S(=O)(=O)c3ccc(Cl)cc3)CC2)cc1 | – | > 200 | 36.4 | – | – | > 1000 | – | –
N#CCOc1ccc(C(=O)N2CCN(S(=O)(=O)c3ccc(Cl)cc3)CC2)cc1 | 0.7 | 108 | 0.8 | – | 453 | 371 | – | selectivity ratio [6]: 516
CN(C)CCOc1cccc(N2CCN(S(=O)(=O)c3ccc(Cl)cc3)CC2)c1 | 41.7 | 137 | 4.6 | – | 37 | 170 | – | selectivity ratio [6]: 4
CC(=O)Nc1ccc(S(=O)(=O)N2CCN(c3ccc(OCCN(C)C)cc3)CC2)cc1 | – | 187 | > 100 | – | – | > 1000 | – | –

The remaining compounds from weak to strong by IC50 (Trypanosoma cruzi [3]), led by results:

IC50 (Leishmania braziliensis [1]) [µM] | IC50 (Trypanosoma cruzi [3]) [µM] | IC50 (Leishmania infantum [7]) [µM] | SMILES | CC50 at 96 h [2] [µM] | selectivity ratio [4] | CC50 at 72 h [5] [µM] | selectivity ratio [8] | further results
– | 65.9 | 35.7 | CN(C)CCNc1ccc(C(=O)N2CCN(S(=O)(=O)c3ccc(Cl)cc3)CC2)cn1 | 395 | 11 | 388 | 6 | –
– | 28 | > 100 | CN(C)CCOc1ccc(N2CCN(S(=O)(=O)c3ccccc3)CC2)cc1 | 91.2 | < 7 | 650 | 3 | –
1.4 | 13.8 | 0.9 | CN(C)CCOc1ccc(C(=O)N2CCN(S(=O)(=O)c3ccc(Cl)cc3)CC2)cc1 | 345 | > 2460 | > 1000 | 25 | selectivity ratio [6]: > 714
29.6 | 13.4 | 29.6 | COc1ccc(OC)c(S(=O)(=O)N2CCN(c3ccc(OCCN(C)C)cc3)CC2)c1 | 274 | 5 | 141 | 20 | selectivity ratio [6]: 5
– | 12.6 | > 100 | COc1ccc(Cl)cc1S(=O)(=O)N1CCN(c2ccc(OCCN(C)C)cc2)CC1 | 148 | < 1 | 73.9 | 12 | –
– | 9.8 | > 100 | O=C(c1ccc(N2CCNCC2)nc1)N1CCN(S(=O)(=O)c2ccc(Cl)cc2)CC1 | 18 | < 3 | 253 | 2 | –
– | 8.3 | > 100 | CN(C)CCOc1ccc(N2CCN(S(=O)(=O)c3ccc(Br)cc3)CC2)cc1 | > 427 | < 3 | 283 | > 57 | –
40.3 | 7.2 | 23.3 | N#CCOc1ccc(N2CCN(S(=O)(=O)c3ccc(Cl)cc3)CC2)cc1 | – | 2 | 46.6 | 71 | selectivity ratio [6]: 1
70.5 | 7.1 | 25.1 | COc1ccc(S(=O)(=O)N2CCN(c3ccc(OCCN(C)C)cc3)CC2)cc1 | 354 | 16 | 388 | 50 | selectivity ratio [6]: 6
21 | 6.4 | 6.1 | CN(C)CCOc1ccc(N2CCN(S(=O)(=O)c3ccc(F)cc3)CC2)cc1 | 374 | > 405 | > 1000 | 58 | selectivity ratio [6]: 48
– | 4.3 | 37.5 | CN(C)CCOc1ccc(N2CCN(C(=O)c3ccc(Cl)cc3)CC2)cc1 | 339 | > 27 | > 1000 | 79 | –
– | 3.7 | 43.3 | CN(C)CCOc1ccc(N2CCN(S(=O)(=O)c3ccccc3Br)CC2)cc1 | 10 | 4 | 161 | 3 | –
– | 2.2 | > 100 | Cc1ccc(S(=O)(=O)N2CCN(c3ccc(OCCN(C)C)cc3)CC2)cc1 | 289 | < 3 | 298 | 136 | –
– | 1.7 | 62.9 | CN(C)CCOc1ccc(N2CCN(S(=O)(=O)c3ccc([N+](=O)[O-])cc3)CC2)cc1 | 302 | 6 | 343 | 178 | –
